Results taken from US7205433B2, “Crystal of amino acid ester salt and process for producing the same” (Ajinomoto Co., Inc., priority 2002, dated 2007).

Experiments:
Assay type in all cases: physicochemical
[1] = Experimental Example 2: comparison of hygroscopicity by weight gain over time (62 to 64% RH); details: 24° C.
Description: In the same manner as in Experimental Example 1, L-Ala-OEt MsOH salt and L-Ala-OMe HCl salt were measured into a glass container in an amount of 0.6 g each, left under conditions of temperature: 24° C., humidity: 62 to 64% RH, and then the hygroscopicity was compared based on the weight gain with the lapse of time.

[2] = Experimental Example 5: comparison of hygroscopicity by weight gain over time (60 to 66% RH); details: 24 EC
Description: The L-Ala-OMe HCl salt, L-Ala-OEt MsOH salt, L-Ala-OEt BsOH salt, L-Ala-OEt 4-CBS salt, L-Ala-OEt 4-EBS salt, L-Ala-OEt 2,4-DMBS salt, and L-Ala-OEt 2,5-DMBS salt were measured in an amount of about 0.3 g each, left standing in a thermostatic chamber at a temperature of 24 EC and a humidity of 60 to 66% RH, and the hygroscopicity was compared based on the weight gain with the lapse of time.

[3] = Experimental Example 1: comparison of hygroscopicity by weight gain over time (44 to 45% RH); details: 22 to 24° C.
Description: L-Ala-OEt HCl salt and L-Ala-OEt MsOH salt were measured into in a glass container in an amount of 1.6 g each, dried in vacuo at 30° C. for 5 hours, left under conditions of temperature: 22 to 24° C., humidity: 44 to 45% RH, and then the hygroscopicity was compared based on the weight gain over the lapse of time. […] The liquefied portion increased with the lapse of time, and the entire salt became liquid 750 minutes later with no observable crystal.

[4] = Experimental Example 4: comparison of hygroscopicity by weight gain over time (40 to 46% RH); details: 24° C.
Description: The L-Ala-OEt HCl salt, L-Ala-OEt MsOH salt, L-Ala-OEt BsOH salt, L-Ala-OEt 4-CBS salt, L-Ala-OEt 4-EBS salt, L-Ala-OEt 2,4-DMBS salt, and L-Ala-OEt 2,5-DMBS salt were measured in an amount of about 0.3 g each, left standing in a thermostatic chamber at a temperature of 24° C. and a humidity of 40 to 46% RH, and the hygroscopicity was compared based on the weight gain with the lapse of time. A part of the crystal of the L-Ala-OEt HCl salt was liquefied in 30 minutes, and the liquefied portion increased thereafter with the lapse of time. After 100 minutes, the whole mass became like a sherbet.

[5] = Experimental Example 7: evaluation of hygroscopicity by weight gain over time (60 to 66% RH); details: 24 EC
Description: The L-Ala-OMe HCl salt, L-Ala-OMe 4-EBS salt, L-Ala-OMe 2,4-DMBS salt, and L-Ala-OMe 2,5-DMBS salt were measured in an amount of about 0.3 g each, left standing in a thermostatic chamber at temperature of 24 EC and a humidity of 60 to 66% RH, and the hygroscopicity was compared based on the weight gain with the lapse of time. A part of the crystal of the L-Ala-OMe HCl salt was liquefied in 10 minutes, and the entirety became a sherbet in 20 minute. The liquefied portion increased thereafter with the lapse of time. After 80 minutes, the whole was liquefied.

CCOC(=O)[C@H](C)N.CS(=O)(=O)O [L-Ala-OEt MsOH salt, L-alanine ethyl ester methanesulfonate]
weight increase rate (% relative to initial weight) ([1]; 0 minutes): 0.00%
weight increase rate (% relative to initial weight) ([1]; 10 minutes): 0.18%
weight increase rate (% relative to initial weight) ([1]; 20 minutes): 0.26%
weight increase rate (% relative to initial weight) ([1]; 35 minutes): 0.39%
weight increase rate (% relative to initial weight) ([1]; 50 minutes): 0.53%
weight increase rate (% relative to initial weight) ([1]; 65 minutes): 0.55%
weight increase rate (% relative to initial weight) ([1]; 80 minutes): 0.63%
weight increase rate (% relative to initial weight) ([1]; 95 minutes): 0.70%
weight increase rate (% relative to initial weight) ([1]; 110 minutes): 0.78%
weight increase rate (% relative to initial weight) ([1]; 125 minutes): 0.94%
weight increase rate (% relative to initial weight) ([1]; 140 minutes): 1.01%
weight increase rate (% relative to initial weight) ([1]; 155 minutes): 1.00%
weight increase rate (% relative to initial weight) ([1]; 170 minutes): 1.13%
weight increase rate (% relative to initial weight) ([1]; 185 minutes): 1.26%
weight increase rate (% relative to initial weight) ([1]; 200 minutes): 1.32%
change in weight with the lapse of time ([1]; up to 200 minutes): not much change in weight
liquefaction ([1]; up to 200 minutes): liquefaction was not observed
weight increase rate (%) ([2]; 0 minutes): 0.00%
weight increase rate (%) ([2]; 10 minutes): 0.32%
weight increase rate (%) ([2]; 20 minutes): 0.35%
weight increase rate (%) ([2]; 35 minutes): 0.38%
weight increase rate (%) ([2]; 50 minutes): 0.38%
weight increase rate (%) ([2]; 65 minutes): 0.41%
weight increase rate (%) ([2]; 80 minutes): 0.44%
weight increase rate (%) ([2]; 95 minutes): 0.44%
weight increase rate (%) ([2]; 110 minutes): 0.48%
weight increase rate (%) ([2]; 125 minutes): 0.44%
weight increase rate (%) ([2]; 140 minutes): 0.48%
weight increase rate (%) ([2]; 155 minutes): 0.48%
weight increase rate (%) ([2]; 170 minutes): 0.51%
weight increase rate (%) ([2]; 185 minutes): 0.48%
weight increase rate (%) ([2]; 200 minutes): 0.51%
weight increase rate (% relative to initial weight) ([3]; 0 minutes): 0.00%
weight increase rate (% relative to initial weight) ([3]; 1 minutes): 0.08%
weight increase rate (% relative to initial weight) ([3]; 2 minutes): 0.11%
weight increase rate (% relative to initial weight) ([3]; 3 minutes): 0.17%
weight increase rate (% relative to initial weight) ([3]; 4 minutes): 0.17%
weight increase rate (% relative to initial weight) ([3]; 6 minutes): 0.23%
weight increase rate (% relative to initial weight) ([3]; 10 minutes): 0.36%
weight increase rate (% relative to initial weight) ([3]; 15 minutes): 0.41%
weight increase rate (% relative to initial weight) ([3]; 25 minutes): 0.48%
weight increase rate (% relative to initial weight) ([3]; 35 minutes): 0.56%
weight increase rate (% relative to initial weight) ([3]; 50 minutes): 0.58%
weight increase rate (% relative to initial weight) ([3]; 60 minutes): 0.59%
weight increase rate (% relative to initial weight) ([3]; 75 minutes): 0.63%
weight increase rate (% relative to initial weight) ([3]; 90 minutes): 0.57%
weight increase rate (% relative to initial weight) ([3]; 120 minutes): 0.58%
weight increase rate (% relative to initial weight) ([3]; 150 minutes): 0.58%
weight increase rate (% relative to initial weight) ([3]; 180 minutes): 0.61%
weight increase rate (% relative to initial weight) ([3]; 750 minutes): 1.16%
change in weight with the lapse of time ([3]; up to 750 minutes): almost no change in weight
liquefaction ([3]; up to 750 minutes): liquefaction was not observed
weight increase rate (%) ([4]; 0 minutes): 0.00%
weight increase rate (%) ([4]; 15 minutes): 0.03%
weight increase rate (%) ([4]; 30 minutes): 0.03%
weight increase rate (%) ([4]; 45 minutes): 0.00%
weight increase rate (%) ([4]; 60 minutes): 0.19%
weight increase rate (%) ([4]; 75 minutes): 0.35%
weight increase rate (%) ([4]; 90 minutes): 0.35%
weight increase rate (%) ([4]; 120 minutes): 0.42%
weight increase rate (%) ([4]; 150 minutes): 0.39%
weight increase rate (%) ([4]; 180 minutes): 0.55%

COC(=O)[C@H](C)N.Cl [L-Ala-OMe HCl salt, alanine methyl ester hydrochloride, reference compound]
time to liquefaction of a part of the crystals [1]: 20 min
time until the entire salt became liquid [1]: 155 min
weight increase rate (% relative to initial weight) ([1]; 0 minutes): 0.00%
weight increase rate (% relative to initial weight) ([1]; 10 minutes): 0.11%
state of the crystals ([1]; 20 minutes): (partly liquefied)
weight increase rate (% relative to initial weight) ([1]; 20 minutes): 0.54%
weight increase rate (% relative to initial weight) ([1]; 35 minutes): 1.04%
weight increase rate (% relative to initial weight) ([1]; 50 minutes): 1.67%
state of the crystals ([1]; 65 minutes): (whole sherbet)
weight increase rate (% relative to initial weight) ([1]; 65 minutes): 2.27%
weight increase rate (% relative to initial weight) ([1]; 80 minutes): 2.83%
weight increase rate (% relative to initial weight) ([1]; 95 minutes): 3.36%
weight increase rate (% relative to initial weight) ([1]; 110 minutes): 3.97%
weight increase rate (% relative to initial weight) ([1]; 125 minutes): 4.54%
weight increase rate (% relative to initial weight) ([1]; 140 minutes): 5.13%
state of the crystals ([1]; 155 minutes): (whole liquid)
weight increase rate (% relative to initial weight) ([1]; 155 minutes): 5.48%
weight increase rate (% relative to initial weight) ([1]; 170 minutes): 6.02%
weight increase rate (% relative to initial weight) ([1]; 185 minutes): 6.56%
weight increase rate (% relative to initial weight) ([1]; 200 minutes): 7.03%
time until a part of the crystal was liquefied [5]: 10 min
time until the entirety became a sherbet [5]: 20 min
time until the whole was liquefied [5]: 80 min
weight increase rate (%) ([5]; 0 min): 0.00%
state of the crystals ([5]; 10 min): (partly liquefied)
weight increase rate (%) ([5]; 10 min): 6.74%
state of the crystals ([5]; 20 min): (sherbet state)
weight increase rate (%) ([5]; 20 min): 10.06%
weight increase rate (%) ([5]; 35 min): 12.52%
weight increase rate (%) ([5]; 50 min): 14.31%
weight increase rate (%) ([5]; 65 min): 15.69%
state of the crystals ([5]; 80 min): (entirely liquefied)
weight increase rate (%) ([5]; 80 min): 17.16%
weight increase rate (%) ([5]; 95 min): 18.31%
weight increase rate (%) ([5]; 110 min): 19.42%
weight increase rate (%) ([5]; 125 min): 20.54%
weight increase rate (%) ([5]; 140 min): 21.66%
weight increase rate (%) ([5]; 155 min): 22.62%
weight increase rate (%) ([5]; 170 min): 23.55%
weight increase rate (%) ([5]; 185 min): 24.41%
weight increase rate (%) ([5]; 200 min): 25.14%
time until a part of the crystal was liquefied [2]: 35 min
time until the whole mass was like a sherbet [2]: 125 min
weight increase rate (%) ([2]; 0 minutes): 0.00%
weight increase rate (%) ([2]; 10 minutes): 3.03%
weight increase rate (%) ([2]; 20 minutes): 4.85%
weight increase rate (%) ([2]; 35 minutes): 7.30%
weight increase rate (%) ([2]; 50 minutes): 8.84%
weight increase rate (%) ([2]; 65 minutes): 10.42%
weight increase rate (%) ([2]; 80 minutes): 11.65%
weight increase rate (%) ([2]; 95 minutes): 12.77%
weight increase rate (%) ([2]; 110 minutes): 13.69%
weight increase rate (%) ([2]; 125 minutes): 14.74%
weight increase rate (%) ([2]; 140 minutes): 15.46%
weight increase rate (%) ([2]; 155 minutes): 16.23%
weight increase rate (%) ([2]; 170 minutes): 16.88%
weight increase rate (%) ([2]; 185 minutes): 17.43%
weight increase rate (%) ([2]; 200 minutes): 17.77%
